From patent US12528741B2, “Compositions for controlling microbially induced concrete corrosion” (The Regents of the University of Colorado, priority 2020, dated 2026)

Key:
[1] = tested on: sulfur oxidizing bacteria isolated from a corroding sewer (Acidithiobacillus spp.); assay: modified Kirby-Bauer diffusion susceptibility test, metal-laden PAC on thiosulfate agar (solid media); assay type: cell-based, Acidithiobacillus thiooxidans; details: average
From the text: Bacterial cell abundance on the different areas of the plate surfaces were quantified using the epifluorescence microscopy methods known in the art. Areas selected for representative analysis were located in the center of each inhibition zone and the dispersed colonies area, and 10 mm into the bacterial monolayer.
Acidithiobacillus spp. response to metal mixtures is limited, however, the synergy of binary and ternary metal solutions have been described. […] The classic Kirby-Bauer antibiotic sensitivity test was adopted to assess diffusion inhibition of Acidithiobacillus thiooxidans growing on agar surfaces, in a longitudinal format.

[2] = tested on: Acidithiobacillus spp. enrichments from sewer crown biofilm extract; assay: metal inhibition in liquid media (pH monitoring and cell counts of sewer enrichments); assay type: cell-based; details: for cell density where pH dropped: average, aliquots when pH reached 2
Method: FIGS. 4A-4E are graphs showing pH of enrichments including different levels of copper, cobalt, and silver, alone and in combinations. FIG. 4A: Cu^2+, FIG. 4B: Ag+, FIG. 4C: Cu/Ag in combination at a ratio 2:1, FIG. 4D: Co^2+, and FIG. 4E: Cu/Co in combination at a ratio 1:1. Enrichments were inoculated with 150 μL of biofilm extract from a corroded site and dominated by Acidithiobacillus spp. (>95% relative abundance).
FIGS. 5A-5E are graphs showing cell densities (cells/mL) observed in sewer sourced enrichment cultures including copper, cobalt and silver, alone and in combinations. FIG. 5A: Cu^2+, FIG. 5B: Ag^+, FIG. 5C: Cu^2+/Ag^+ in combination at a ratio 2:1, FIG. 5D: Co^2+, and FIG. 5E: Cu^2+/Co^2+ in combination at a ratio 1:1. Light grey bars indicate enrichment cultures where pH dropped below 2. Dark grey bars indicate batches where pH approached neutrality. (n=3).
The pH was monitored and used as an indicator for significant acidophilic SOB activity (FIGS. 4A-4E). Thiobacillus media, without any metal addition, was used as control for comparative analysis. […] Above 40 mg Cu/L, no pH depression was observed; in contrast, pH increased and plateaued at values ranging between 6.5 and 6.7. […] Where only cobalt and silver were used, all challenges indicated some evidence of acidophilic activity.
Combinations of metals were also studied, including Cu/Ag and Cu/Co at mass ratios of 2:1 and 1:1, respectively. […] Thresholds for pH were also observed above 10 mg Cu/L and 10 mg Co/L, where copper and cobalt were combined. This challenge was monitored over 30 days, indicating significant acidophilic activity after […] of incubation.
All metal species used for the challenges were based on nitrate salts. Therefore, inhibition in the presence of counter ions, was also monitored. Challenges with increasing NO3 concentrations (up to 200 mg NO3/L) where prepared with NaNO3. All challenges indicated acidophilic activity and no lag effect was ever observed.
Aliquots for cell quantification and genetic analyses were extracted from each experiment when pH reached 2. If no pH drop was observed, aliquots were extracted after 30 days of incubation. FIGS. 5A-5E illustrate the observed cell densities for all tests.
The inhibitory effects and minimum inhibitory concentration of Cu and Co were further assessed on mixed acidophilic cultures in a liquid format. Silver (Ag) was also included based on its literature history as broad-spectrum inhibitory metal. As for the solid inhibition assays, the results presented in this study support the hypothesis that different metal may ions have markedly different inhibitory potential against Acidithiobacillus spp. extracted from sewer crowns. […] In thiosulfate-based media, stationary phase for Acidithiobacillus cultures was reached 8 days after inoculation. The relative duration of experiments highlighted metal-induced lag phases from stable inhibitory concentrations. MICs clearly emerged for Cu alone (50 mg Cu/L), and in mixtures of Cu/Ag (50 mg/L and 25 mg/L) and Cu/Co (15 mg/L and 15 mg/L). […] No inhibitory synergism was observed when mixing Cu and Ag at a 2:1 ratio, when compared to any individual metal alone. However, synergistic inhibition was observed when Cu and Co were present at a 1:1 ratio. […] The literature is tenuous on this topic.

[3] = tested on: Acidithiobacillus spp.; assay: 16S rRNA gene analysis of metal-exposed enrichment cultures; assay type: cell-based; details: below 40 mg Cu/L
From the text: Cu and Cu/Ag mixtures were chosen to investigate the microbial communities under conditions where a pH threshold was observed. 16S rRNA gene analysis of 17 samples generated over 4 million sequences, classified in 611 operational taxonomic units (OTUs). After rarefaction analysis, the median Good's coverage was >99.9%, indicating enough sequencing data to confidently describe the diversity within these samples. Abundant OTUs consistently included 5 bacteria genera (FIGS. 6A-6B). Samples with metal concentration below the acidophilic inhibition threshold (40 mg Cu/L) indicated bacterial communities were dominated by Acidithiobacillus spp. […] When copper and silver were both present, Acidithiobacillus represented the dominant genus below the concentrations of 40 mg Cu/L and 20 mg Ag/L. The same genus represented less than 1% in batches above these concentrations. Following the same pattern as in the presence of Cu alone, the enrichments were also dominated by Burkholderia and Ralstonia spp. with significant presence of Sphingomonas spp., Leifsonia spp., Methylobacterium spp., and Microbacteriaceae spp. (when Cu ≥40 mg/L).

[Cd] [Cd, cadmium]
metal normalized inhibition length (Cd) [1]: 0.74 cm·(mg Cd/L)^−1

[Ag] [Ag, silver]
MIC, Ag ([2]; 30 days, Ag alone (highest tested) or in Cu/Ag): > 75 µg/mL | threshold Ag concentration for pH depression ([2]; Ag alone (highest tested) or Cu/Ag 2:1): ≥ 75 mg Ag/L | cell density where pH dropped [2]: 1.73×10^8 cells/mL

[Ni] [Ni, nickel]
metal normalized inhibition length (Ni) [1]: 0.28 cm·(mg Ni/L)^−1

[Cu+2] [Cu, copper]
MIC, Cu ([2]; 30 days, Cu alone or in Cu/Ag 2:1, Cu/Co 1:1): 50 µg/mL | cell density where pH did not drop ([2]; aliquots after 30 days): 1.11×10^9 cells/mL | cell density where pH dropped [2]: 1.06×10^8 cells/mL | minimum inhibitory concentration (MIC) for acidophilic growth ([2]; no significant pH drop after 30 days, Cu alone): 50 mg Cu/L | endpoint pH of challenges at or below threshold ([2]; up to 40 mg Cu/L): < 2 pH | metal normalized inhibition length (Cu) ([1]; agar, 10 days, pH below 3, Cu alone or co-loaded with Co on PAC): 2.36 cm·(mg Cu/L)^−1 | Acidithiobacillus relative abundance below threshold [3]: > 99%

[Co+2] [Co, cobalt]
MIC, Co ([2]; 30 days, Co alone or in Cu/Co): > 50 µg/mL | threshold Co concentration for pH depression ([2]; Co alone (highest tested) or Cu/Co 1:1): ≥ 50 mg Co/L | cell density where pH dropped [2]: 3.81×10^8 cells/mL | metal normalized inhibition length (Co) ([1]; Co alone or co-loaded with Cu on PAC): 1.23 cm·(mg Co/L)^−1

[Zn] [Zn, zinc]
metal normalized inhibition length (Zn) [1]: 0.14 cm·(mg Zn/L)^−1

O=[N+]([O-])[O-].[Na+] [NaNO3, reference compound]
highest NO3 concentration still showing acidophilic activity, no lag ([2]; counter ion challenge): ≥ 200 mg NO3/L
